Data as given in PubChem BioAssay AID1918933 (Molecular Pharmacology Branch, DTP, NCI, 2023).

Test system: 186277-243-T-J2-PDC complex spheroid viability
Experiment: Anticancer human tumor 186277-243-T-J2-PDC patient-derived colon adenocarcinoma cell line growth inhibition
Conditions: for IC50: curve of first compound; for viability, T/C: stronger effect = lower value
In short: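 Complex spheroids of tumor cells with HUVEC and human MSCs, exposed to iadademstat combined with other agents. Each agent tested in half-log steps from near clinical Cmax (else 10 microM top), DMSO ≤0.25%.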

[1] = second compound 0.1 µM, first compound 0.0316 µM
[2] = second compound 0.1 µM, first compound 0.1 µM
[3] = second compound 0.1 µM, first compound 0.316 µM
[4] = second compound 0.1 µM, first compound 1 µM
[5] = second compound 0.1 µM, first compound 3.16 µM
[6] = second compound 0.1 µM, first compound 10 µM
[7] = second compound 0.316 µM, first compound 0.0316 µM
[8] = second compound 0.316 µM, first compound 0.1 µM
[9] = second compound 0.316 µM, first compound 0.316 µM
[10] = second compound 0.316 µM, first compound 1 µM
[11] = second compound 0.316 µM, first compound 3.16 µM
[12] = second compound 0.316 µM, first compound 10 µM
[13] = second compound 1 µM, first compound 0.0316 µM
[14] = second compound 1 µM, first compound 0.1 µM
[15] = second compound 1 µM, first compound 0.316 µM
[16] = second compound 1 µM, first compound 1 µM
[17] = second compound 1 µM, first compound 3.16 µM
[18] = second compound 1 µM, first compound 10 µM
[19] = second compound 3.16 µM, first compound 0.0316 µM
[20] = second compound 3.16 µM, first compound 0.1 µM
[21] = second compound 3.16 µM, first compound 0.316 µM
[22] = second compound 3.16 µM, first compound 1 µM
[23] = second compound 3.16 µM, first compound 3.16 µM
[24] = second compound 3.16 µM, first compound 10 µM
[25] = second compound 10 µM, first compound 0.0316 µM
[26] = second compound 10 µM, first compound 0.1 µM
[27] = second compound 10 µM, first compound 0.316 µM
[28] = second compound 10 µM, first compound 1 µM
[29] = second compound 10 µM, first compound 3.16 µM
[30] = second compound 10 µM, first compound 10 µM
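Note: 7 day exposure to compounds.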
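Throughout, for viability, T/C: 100% = DMSO vehicle control viability.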

Compound: Nc1ncn(C2CC(O)C(CO)S2)c(=O)n1 (stereo not given) + NC1CCC(NC2CC2c2ccccc2)CC1
- IC50 (second compound 0.1 µM): 77.6 nM
- IC50 (second compound 0.316 µM): 74 nM
- IC50 (second compound 1 µM): 72.4 nM
- IC50 (second compound 3.16 µM): 75.3 nM
- IC50 (second compound 10 µM): 89 nM
- viability, T/C (second compound 0.1 µM, first compound 0.000949 µM): 125%
- viability, T/C (second compound 0.1 µM, first compound 0.003 µM): 126%
- viability, T/C (second compound 0.1 µM, first compound 0.00949 µM): 132%
- viability, T/C (second compound 0.1 µM, first compound 0.03 µM): 107%
- viability, T/C (second compound 0.1 µM, first compound 0.0949 µM): 38.1%
- viability, T/C (second compound 0.1 µM, first compound 0.3 µM): 9.48%
- viability, T/C (second compound 0.316 µM, first compound 0.000949 µM): 108%
- viability, T/C (second compound 0.316 µM, first compound 0.003 µM): 129%
- viability, T/C (second compound 0.316 µM, first compound 0.00949 µM): 123%
- viability, T/C (second compound 0.316 µM, first compound 0.03 µM): 105%
- viability, T/C (second compound 0.316 µM, first compound 0.0949 µM): 34.9%
- viability, T/C (second compound 0.316 µM, first compound 0.3 µM): 10.6%
- viability, T/C (second compound 1 µM, first compound 0.000949 µM): 115%
- viability, T/C (second compound 1 µM, first compound 0.003 µM): 125%
- viability, T/C (second compound 1 µM, first compound 0.00949 µM): 146%
- viability, T/C (second compound 1 µM, first compound 0.03 µM): 90%
- viability, T/C (second compound 1 µM, first compound 0.0949 µM): 40.3%
- viability, T/C (second compound 1 µM, first compound 0.3 µM): 11.5%
- viability, T/C (second compound 3.16 µM, first compound 0.000949 µM): 119%
- viability, T/C (second compound 3.16 µM, first compound 0.003 µM): 132%
- viability, T/C (second compound 3.16 µM, first compound 0.00949 µM): 140%
- viability, T/C (second compound 3.16 µM, first compound 0.03 µM): 109%
- viability, T/C (second compound 3.16 µM, first compound 0.0949 µM): 35.7%
- viability, T/C (second compound 3.16 µM, first compound 0.3 µM): 12.7%
- viability, T/C (second compound 10 µM, first compound 0.000949 µM): 118%
- viability, T/C (second compound 10 µM, first compound 0.003 µM): 125%
- viability, T/C (second compound 10 µM, first compound 0.00949 µM): 144%
- viability, T/C (second compound 10 µM, first compound 0.03 µM): 112%
- viability, T/C (second compound 10 µM, first compound 0.0949 µM): 46.9%
- viability, T/C (second compound 10 µM, first compound 0.3 µM): 13.3%

Compound: CC1(C)CCC(CN2CCN(c3ccc(C(=O)NS(=O)(=O)c4ccc(NCC5CCOCC5)c([N+](=O)[O-])c4)c(Oc4cnc5[nH]ccc5c4)c3)CC2)=C(c2ccc(Cl)cc2)C1 + NC1CC1c1ccc(-c2cccc(O)c2)cc1
- IC50 (second compound 0.1 µM): 2230 nM
- IC50 (second compound 0.316 µM): 2260 nM
- IC50 (second compound 1 µM): 2240 nM
- IC50 (second compound 3.16 µM): 2410 nM
- IC50 (second compound 10 µM): 2150 nM
- viability, T/C [1]: 106%
- viability, T/C [2]: 101%
- viability, T/C [3]: 117%
- viability, T/C [4]: 99.1%
- viability, T/C [5]: 28.4%
- viability, T/C [6]: 0.17%
- viability, T/C [7]: 98.2%
- viability, T/C [8]: 97.4%
- viability, T/C [9]: 108%
- viability, T/C [10]: 98.8%
- viability, T/C [11]: 29.9%
- viability, T/C [12]: 0.15%
- viability, T/C [13]: 102%
- viability, T/C [14]: 106%
- viability, T/C [15]: 98.5%
- viability, T/C [16]: 91.3%
- viability, T/C [17]: 32.6%
- viability, T/C [18]: 0.14%
- viability, T/C [19]: 106%
- viability, T/C [20]: 101%
- viability, T/C [21]: 107%
- viability, T/C [22]: 94.4%
- viability, T/C [23]: 36.4%
- viability, T/C [24]: 0.15%
- viability, T/C [25]: 107%
- viability, T/C [26]: 107%
- viability, T/C [27]: 101%
- viability, T/C [28]: 99.7%
- viability, T/C [29]: 25%
- viability, T/C [30]: 0.2%

Compound: CC1COCCN1c1cc(C2(S(C)(=N)=O)CC2)nc(-c2ccnc3[nH]ccc23)n1 (stereo not given) + NC1CC1c1ccc(-c2cccc(O)c2)cc1
- IC50 (second compound 0.1 µM): 1060 nM
- IC50 (second compound 0.316 µM): 1140 nM
- IC50 (second compound 1 µM): 1270 nM
- IC50 (second compound 3.16 µM): 1190 nM
- IC50 (second compound 10 µM): 872 nM
- viability, T/C [1]: 102%
- viability, T/C [2]: 99.8%
- viability, T/C [3]: 99.6%
- viability, T/C [4]: 52.1%
- viability, T/C [5]: 9.5%
- viability, T/C [6]: 5.47%
- viability, T/C [7]: 95.4%
- viability, T/C [8]: 97.8%
- viability, T/C [9]: 92.2%
- viability, T/C [10]: 55%
- viability, T/C [11]: 10.5%
- viability, T/C [12]: 5.49%
- viability, T/C [13]: 108%
- viability, T/C [14]: 108%
- viability, T/C [15]: 105%
- viability, T/C [16]: 59.5%
- viability, T/C [17]: 12.5%
- viability, T/C [18]: 5.36%
- viability, T/C [19]: 104%
- viability, T/C [20]: 104%
- viability, T/C [21]: 109%
- viability, T/C [22]: 57.5%
- viability, T/C [23]: 11.6%
- viability, T/C [24]: 6.19%
- viability, T/C [25]: 106%
- viability, T/C [26]: 89.6%
- viability, T/C [27]: 92.7%
- viability, T/C [28]: 44.3%
- viability, T/C [29]: 8%
- viability, T/C [30]: 4.85%

Compound: COc1cc(Nc2ncc3c(n2)-c2ccc(Cl)cc2C(c2c(F)cccc2OC)=NC3)ccc1C(=O)O + NC1CCC(NC2CC2c2ccccc2)CC1
- IC50 (second compound 0.1 µM): 13 nM
- IC50 (second compound 0.316 µM): 11.2 nM
- IC50 (second compound 1 µM): 10.4 nM
- IC50 (second compound 3.16 µM): 10.6 nM
- IC50 (second compound 10 µM): 13.7 nM
- viability, T/C (second compound 0.1 µM, first compound 0.00316 µM): 131%
- viability, T/C (second compound 0.1 µM, first compound 0.01 µM): 59.2%
- viability, T/C [1]: 19.2%
- viability, T/C [2]: 0.36%
- viability, T/C [3]: 0.06%
- viability, T/C [4]: 0.02%
- viability, T/C (second compound 0.316 µM, first compound 0.00316 µM): 119%
- viability, T/C (second compound 0.316 µM, first compound 0.01 µM): 54.1%
- viability, T/C [7]: 11.7%
- viability, T/C [8]: 0.19%
- viability, T/C [9]: 0.05%
- viability, T/C [10]: 0.01%
- viability, T/C (second compound 1 µM, first compound 0.00316 µM): 109%
- viability, T/C (second compound 1 µM, first compound 0.01 µM): 51.1%
- viability, T/C [13]: 11.3%
- viability, T/C [14]: 0.14%
- viability, T/C [15]: 0.02%
- viability, T/C [16]: 0.01%
- viability, T/C (second compound 3.16 µM, first compound 0.00316 µM): 120%
- viability, T/C (second compound 3.16 µM, first compound 0.01 µM): 51.8%
- viability, T/C [19]: 13.2%
- viability, T/C [20]: 0.12%
- viability, T/C [21]: 0.04%
- viability, T/C [22]: 0.01%
- viability, T/C (second compound 10 µM, first compound 0.00316 µM): 128%
- viability, T/C (second compound 10 µM, first compound 0.01 µM): 58.6%
- viability, T/C [25]: 27.7%
- viability, T/C [26]: 0.81%
- viability, T/C [27]: 0.06%
- viability, T/C [28]: 0.02%
